Measurements taken from US8247211B2, “Glycopeptide antibiotics” (American Cyanamid Company, priority 2001, dated 2012).

Columns and labels:
[1] = type: in vivo; conditions: mice, 20 mg/kg intravenously daily for 9 days, serum on day 10
Protocol: 20-day-old CD-1 mice were divided into a vehicle control group (5 mice) and a treatment group (5 mice). Samples of glycopeptide antibiotics were administered at 20 mg/kg intravenously daily for 9 days. Animals were necropsied on day 10 Sera were analyzed for BUN (blood urea nitrogen), creatinine, AST (aspartic aminotransferase), and ALT (alanine aminotransferase) by routine, standard, automated methods using an Hitachi 747 chemistry analyzer.

[2] = test system: Staphylococcus aureus-SMITH (GC 4543); experiment: Acute lethal infection in mice (ED50); type: in vivo; conditions: female CD-1 mice, intraperitoneal challenge, intravenous dose 30 min. after infection, 7 day survival ratios
In short: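 Median effective dose is calculated from 7-day survival ratios pooled across three separate tests. Mice (female CD-1) receive an intraperitoneal bacterial challenge in broth or hog gastric mucin, then intravenous drug 30 min later, five animals per dose level.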

[3] = Anatomic pathology (heart and kidney histopathology) in mice; type: in vivo, CD-1 mice; conditions: 20 mg/kg intravenously daily for 9 days, microscopic histopathology on day 10
In short: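 Juvenile CD-1 mice (20 days old; 5 vehicle, 5 treated) received glycopeptide antibiotic 20 mg/kg i.v. daily for 9 days. Necropsied tissues formalin-fixed, paraffin-embedded, H&E stained and examined microscopically; findings graded slight to severe versus controls.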

Enterococcus sp. = experiment: In vitro antibacterial evaluation: minimum inhibitory concentration (MIC), broth dilution method; type: cell-based; conditions: 18 hours at 35° C.
In short: (§1)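 Susceptibility determined by NCCLS-recommended broth dilution (M7-A2), Muller-Hinton II […]. Concentration span 64-0.06 μg/mL, inoculum 5×10^5 CFU/mL. Isolates include strains resistant to methicillin, penicillin and/or vancomycin.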

Streptococcus sp. = experiment: as above; type: cell-based; conditions: 18 hours at 35° C.
In short: as §1

Escherichia coli = experiment: as above; type: cell-based; conditions: 18 hours at 35° C.
In short: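 NCCLS M7-A2 broth dilution with Mueller-Hinton II, testing 64-0.06 μg/mL antibiotic against 5×10^5 CFU/mL inocula. Test strains include recent methicillin-, penicillin- or vancomycin-resistant clinical isolates. MIC is the lowest concentration preventing growth.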

Staphylococcus sp. = experiment: as above; type: cell-based
In short: as §1

[4] = broth dilution, inoculum 5×10^5 CFU/mL

N=C1NCC(C(O)C2NC(=O)C(Cc3ccc(OC4OC(CO)C(OC5OC6COC7(OC6C(O)C5O)C5CC6CC(C5)CC7C6)C(O)C4O)cc3)NC(=O)C(Cc3ccccc3)NC(=O)CNC(=O)C(CO)NC(=O)C(C(O)C3CNC(=N)N3C3OC(CO)C(O)C(O)C3O)NC2=O)N1 (centres unmarked) [Example 220]
16 µg/mL: MIC Escherichia coli (GC 4559) (Escherichia coli; Escherichia coli (GC 4559))
149%: Clinical Chemistry (Day 10) % of Control, BUN [1]
0: Anatomical Pathology (Day 10), Heart [3]
+++: Anatomical Pathology (Day 10), Kidney [3]
2 µg/mL: MIC Enterococcus avium (GC 4558) (Enterococcus sp.; Enterococcus avium (GC 4558)) | MIC Enterococcus faecalis (ATCC 29212) (Enterococcus sp.; Enterococcus faecalis (ATCC 29212)) | MIC Enterococcus faecalis (GC 2691) (Enterococcus sp.; Enterococcus faecalis (GC 2691)) | MIC Enterococcus faecalis (GC 3059) (Enterococcus sp.; Enterococcus faecalis (GC 3059)) | MIC Enterococcus faecalis (GC 4552) (Enterococcus sp.; Enterococcus faecalis (GC 4552)) | MIC Enterococcus faecalis (GC 4554) (Enterococcus sp.; Enterococcus faecalis (GC 4554)) | MIC Enterococcus avium (GC 4558) (Enterococcus sp.; [4]) | MIC Enterococcus faecalis (ATCC 29212) (Enterococcus sp.; [4]) | MIC Enterococcus faecalis (GC 2691) (Enterococcus sp.; [4]) | MIC Enterococcus faecalis (GC 3059) (Enterococcus sp.; [4]) | MIC Enterococcus faecalis (GC 4552) (Enterococcus sp.; [4]) | MIC Enterococcus faecalis (GC 4554) (Enterococcus sp.; [4])
0.5 µg/mL: MIC Escherichia coli (GC 4560) (Escherichia coli; Escherichia coli (GC 4560)) | MIC Staphylococcus aureus (ATCC 29213) (Staphylococcus sp.; strain ATCC 29213) | MIC Staphylococcus aureus (GC 4542) (Staphylococcus sp.; strain GC 4542) | MIC Staphylococcus aureus (GC 4545) (Staphylococcus sp.; strain GC 4545) | MIC Coagulase Negative Staphylococcus (GC 4547) (Staphylococcus sp.; strain GC 4547) | MIC Coagulase Negative Staphylococcus (GC 4551) (Staphylococcus sp.; strain GC 4551)
0.19 mg/kg: median effective dose (ED50), Staphylococcus aureus-SMITH (GC 4543) [2]
121%: Clinical Chemistry (Day 10) % of Control, Creatinine [1]
1 µg/mL: MIC Enterococcus faecalis (GC 2242) (Enterococcus sp.; Enterococcus faecalis (GC 2242)) | MIC Enterococcus faecalis (GC 4553) (Enterococcus sp.; Enterococcus faecalis (GC 4553)) | MIC Enterococcus faecalis (GC 6189) (Enterococcus sp.; Enterococcus faecalis (GC 6189)) | MIC Enterococcus faecium (GC 2243) (Enterococcus sp.; Enterococcus faecium (GC 2243)) | MIC Enterococcus faecium (GC 4556) (Enterococcus sp.; Enterococcus faecium (GC 4556)) | MIC Enterococcus faecium (GC 4557) (Enterococcus sp.; Enterococcus faecium (GC 4557)) | MIC Enterococcus faecalis (GC 2242) (Enterococcus sp.; [4]) | MIC Enterococcus faecalis (GC 4553) (Enterococcus sp.; [4]) | MIC Enterococcus faecalis (GC 6189) (Enterococcus sp.; [4]) | MIC Enterococcus faecium (GC 2243) (Enterococcus sp.; [4]) | MIC Enterococcus faecium (GC 4556) (Enterococcus sp.; [4]) | MIC Enterococcus faecium (GC 4557) (Enterococcus sp.; [4]) | MIC Staphylococcus aureus (GC 1131) (Staphylococcus sp.; strain GC 1131) | MIC Staphylococcus aureus (GC 3051) (Staphylococcus sp.; strain GC 3051) | MIC Staphylococcus aureus (GC 3053) (Staphylococcus sp.; strain GC 3053) | MIC Staphylococcus aureus (GC 4541) (Staphylococcus sp.; strain GC 4541) | MIC Staphylococcus aureus-SMITH (GC 4543) (Staphylococcus sp.; strain GC 4543) | MIC Staphylococcus aureus (GC 4544) (Staphylococcus sp.; strain GC 4544)
<0.06 µg/mL: MIC Streptococcus agalactiae (GC 4564) (Streptococcus sp.; Streptococcus agalactiae (GC 4564)) | MIC Streptococcus pneumoniae (ATCC 6301) (Streptococcus sp.; Streptococcus pneumoniae (ATCC 6301)) | MIC Streptococcus pneumoniae (GC 1894) (Streptococcus sp.; Streptococcus pneumoniae (GC 1894)) | MIC Streptococcus pneumoniae (GC 4565) (Streptococcus sp.; Streptococcus pneumoniae (GC 4565)) | MIC Streptococcus pyogenes (GC 4563) (Streptococcus sp.; Streptococcus pyogenes (GC 4563)) | MIC Streptococcus agalactiae (GC 4564) (Streptococcus sp.; [4]) | MIC Streptococcus pneumoniae (ATCC 6301) (Streptococcus sp.; [4]) | MIC Streptococcus pneumoniae (GC 1894) (Streptococcus sp.; [4]) | MIC Streptococcus pneumoniae (GC 4565) (Streptococcus sp.; [4]) | MIC Streptococcus pyogenes (GC 4563) (Streptococcus sp.; [4])
0.25 µg/mL: MIC Staphylococcus haemolyticus (GC 4546) (Staphylococcus sp.; strain GC 4546) | MIC Coagulase Negative Staphylococcus (GC 4548) (Staphylococcus sp.; strain GC 4548) | MIC Coagulase Negative Staphylococcus (GC 4549) (Staphylococcus sp.; strain GC 4549)
32 µg/mL: MIC Escherichia coli (ATCC 25922) (Escherichia coli; Escherichia coli (ATCC 25922))
